Source: the supplement of paper PMC10307832

Tests used:
Test in all cases: relative viability (nuclei count vs DMSO), 5 days (fraction); higher = more cells survive
[1] = tested on: CAL-12T
Outline: (§1)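 Each reported value is a median over duplicate plates. It expresses relative viability: treated-well nuclei count divided by vehicle-well nuclei count. Lung cancer cell lines in 1536-well plates were dosed by pin tool a day after seeding, alone with one drug or with a fixed anchor-drug dose plus five library-drug doses (not always all listed) in √10 steps, and nuclei were counted after 5 days.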

[2] = tested on: COR-L 105
Outline: as §1

[3] = tested on: EKVX
Outline: as §1

[4] = tested on: EMC-BAC-2
Outline: as §1

[5] = tested on: H3255
Outline: as §1

[6] = tested on: LC-2-ad
Outline: as §1

[7] = tested on: LK-2
Outline: as §1

[8] = tested on: LXF-289
Outline: as §1

[9] = tested on: NCI-H1395
Outline: as §1

[10] = tested on: NCI-H1437
Outline: as §1

[11] = tested on: NCI-H1651
Outline: as §1

[12] = tested on: NCI-H1755
Outline: as §1

[13] = tested on: NCI-H1793
Outline: as §1

[14] = tested on: NCI-H1915
Outline: as §1

[15] = tested on: NCI-H1944
Outline: as §1

[16] = tested on: NCI-H2085
Outline: as §1

[17] = tested on: NCI-H2087
Outline: as §1

[18] = tested on: NCI-H2228
Outline: as §1

[19] = tested on: NCI-H2347
Outline: as §1

[20] = tested on: PC-3 [JPC-3]
Outline: as §1

[21] = tested on: SK-LU-1
Outline: as §1

[22] = tested on: SK-MES-1
Outline: as §1

SMILES: O=c1[nH]c2ccccc2n1C1CCN(CCCC(c2ccc(F)cc2)c2ccc(F)cc2)CC1 [Pimozide] + CC1(C)CCC(c2ccc(Cl)cc2)=C(CN2CCN(c3ccc(C(=O)NS(=O)(=O)c4ccc(N[C@H](CCN5CCOCC5)CSc5ccccc5)c(S(=O)(=O)C(F)(F)F)c4)cc3)CC2)C1 [Navitoclax] (partner 0.5 µM)
- relative viability ([1]; first compound 0.08 µM): 1.35
- relative viability ([1]; first compound 0.253 µM): 1.23
- relative viability ([1]; first compound 0.8 µM): 1.23
- relative viability ([1]; first compound 2.53 µM): 0.977
- relative viability ([1]; first compound 8 µM): 1.08
- relative viability ([2]; first compound 0.253 µM): 0.601
- relative viability ([2]; first compound 0.8 µM): 0.618
- relative viability ([2]; first compound 2.53 µM): 0.816
- relative viability ([2]; first compound 8 µM): 0.645
- relative viability ([3]; first compound 0.253 µM): 0.936
- relative viability ([3]; first compound 0.8 µM): 0.881
- relative viability ([3]; first compound 2.53 µM): 0.89
- relative viability ([3]; first compound 8 µM): 0.946
- relative viability ([4]; first compound 0.08 µM): 1.09
- relative viability ([4]; first compound 0.253 µM): 1.11
- relative viability ([4]; first compound 0.8 µM): 1.05
- relative viability ([4]; first compound 2.53 µM): 1.06
- relative viability ([4]; first compound 8 µM): 1.07
- relative viability ([5]; first compound 0.253 µM): 0.555
- relative viability ([5]; first compound 0.8 µM): 0.549
- relative viability ([5]; first compound 2.53 µM): 0.551
- relative viability ([5]; first compound 8 µM): 0.506
- relative viability ([6]; first compound 0.08 µM): 0.498
- relative viability ([6]; first compound 0.253 µM): 0.509
- relative viability ([6]; first compound 0.8 µM): 0.286
- relative viability ([6]; first compound 2.53 µM): 0.421
- relative viability ([6]; first compound 8 µM): 0.392
- relative viability ([7]; first compound 0.08 µM): 0.818
- relative viability ([7]; first compound 0.253 µM): 0.724
- relative viability ([7]; first compound 0.8 µM): 0.811
- relative viability ([7]; first compound 2.53 µM): 0.721
- relative viability ([7]; first compound 8 µM): 1.05
- relative viability ([8]; first compound 0.08 µM): 0.9
- relative viability ([8]; first compound 0.253 µM): 0.93
- relative viability ([8]; first compound 0.8 µM): 0.91
- relative viability ([8]; first compound 2.53 µM): 0.896
- relative viability ([8]; first compound 8 µM): 0.84
- relative viability ([9]; first compound 0.08 µM): 1.08
- relative viability ([9]; first compound 0.253 µM): 1.15
- relative viability ([9]; first compound 0.8 µM): 1.34
- relative viability ([9]; first compound 2.53 µM): 1.1
- relative viability ([9]; first compound 8 µM): 1.3
- relative viability ([10]; first compound 0.08 µM): 1.07
- relative viability ([10]; first compound 0.253 µM): 1.06
- relative viability ([10]; first compound 0.8 µM): 1.06
- relative viability ([10]; first compound 2.53 µM): 0.993
- relative viability ([10]; first compound 8 µM): 0.81
- relative viability ([11]; first compound 0.08 µM): 0.953
- relative viability ([11]; first compound 0.253 µM): 1.06
- relative viability ([11]; first compound 0.8 µM): 1.07
- relative viability ([11]; first compound 2.53 µM): 1.11
- relative viability ([11]; first compound 8 µM): 0.992
- relative viability ([12]; first compound 0.08 µM): 0.963
- relative viability ([12]; first compound 0.253 µM): 0.941
- relative viability ([12]; first compound 0.8 µM): 0.969
- relative viability ([12]; first compound 2.53 µM): 0.882
- relative viability ([12]; first compound 8 µM): 0.771
- relative viability ([13]; first compound 0.08 µM): 0.532
- relative viability ([13]; first compound 0.253 µM): 0.485
- relative viability ([13]; first compound 0.8 µM): 0.389
- relative viability ([13]; first compound 2.53 µM): 0.48
- relative viability ([13]; first compound 8 µM): 0.494
- relative viability ([14]; first compound 0.08 µM): 0.784
- relative viability ([14]; first compound 0.253 µM): 0.705
- relative viability ([14]; first compound 0.8 µM): 0.777
- relative viability ([14]; first compound 2.53 µM): 0.777
- relative viability ([14]; first compound 8 µM): 0.786
- relative viability ([15]; first compound 0.08 µM): 0.945
- relative viability ([15]; first compound 0.253 µM): 1.05
- relative viability ([15]; first compound 0.8 µM): 0.926
- relative viability ([15]; first compound 2.53 µM): 1.03
- relative viability ([15]; first compound 8 µM): 0.995
- relative viability ([16]; first compound 0.08 µM): 1.15
- relative viability ([16]; first compound 0.253 µM): 1.15
- relative viability ([16]; first compound 0.8 µM): 1.11
- relative viability ([16]; first compound 2.53 µM): 1.04
- relative viability ([16]; first compound 8 µM): 1.06
- relative viability ([17]; first compound 0.08 µM): 0.972
- relative viability ([17]; first compound 0.253 µM): 0.98
- relative viability ([17]; first compound 0.8 µM): 0.878
- relative viability ([17]; first compound 2.53 µM): 0.997
- relative viability ([17]; first compound 8 µM): 0.931
- relative viability ([18]; first compound 0.08 µM): 0.758
- relative viability ([18]; first compound 0.253 µM): 0.715
- relative viability ([18]; first compound 0.8 µM): 0.845
- relative viability ([18]; first compound 2.53 µM): 0.616
- relative viability ([18]; first compound 8 µM): 0.614
- relative viability ([19]; first compound 0.08 µM): 0.799
- relative viability ([19]; first compound 0.253 µM): 0.732
- relative viability ([19]; first compound 0.8 µM): 0.73
- relative viability ([19]; first compound 2.53 µM): 0.683
- relative viability ([19]; first compound 8 µM): 0.819
- relative viability ([20]; first compound 0.253 µM): 0.73
- relative viability ([20]; first compound 0.8 µM): 0.798
- relative viability ([20]; first compound 2.53 µM): 0.761
- relative viability ([20]; first compound 8 µM): 0.732
- relative viability ([21]; first compound 0.08 µM): 1.09
- relative viability ([21]; first compound 0.253 µM): 0.815
- relative viability ([21]; first compound 0.8 µM): 0.804
- relative viability ([21]; first compound 2.53 µM): 0.76
- relative viability ([21]; first compound 8 µM): 0.809
- relative viability ([22]; first compound 0.08 µM): 1.31
- relative viability ([22]; first compound 0.253 µM): 1.25
- relative viability ([22]; first compound 0.8 µM): 1.18
- relative viability ([22]; first compound 2.53 µM): 1.21
- relative viability ([22]; first compound 8 µM): 1.08
